Source: EP0718294A1, “2-Amino-1,3-thiazepines and their use as inhibitors of the nitrogene oxide synthase” (HOECHST AKTIENGESELLSCHAFT, priority 1994, dated 1996)
Where a name gives a salt, the structure may show the parent alone.

Target: T1, NO-Synthase (iNOS) (Mus musculus, UniProt P29477)
T1 construct: Während der Stimulation über 4 Stunden wird die Neusynthese des NO-produzierenden Enzyms NO-Synthase (iNOS) induziert; endogenous in cells; host or cells: RAW 264.7 mouse macrophages stimulated with LPS and γ-interferon
Test: NO measurement by oxyhaemoglobin on LPS/γ-interferon-stimulated macrophages (inhibition of NO release)
Format: cell-based, Maus
Conditions: Mäusemakrophagen RAW 264.7, stimulated 4 h with 140 ng LPS/ml + 5 U γIFN/ml; 120 min incubation with test substance; Extinktionsdifferenz 576-592 nm vs. stimulation control
Method: Die Hemmung der NO-Freisetzung durch die Verbindungen der allgemeinen Formel I kann auch durch NO-Messung mittels Oxyhämoglobin auf Makrophagen wie folgt bestimmt werden: Mäusemakrophagen (MM) des Stammes RAW 264.7 werden in Petrischalen (10 cm Durchmesser) angezüchtet. Als Nährmedium wird DMEM (Fa. Sigma Nr. D 5405), konditioniert mit 4 mM l-Glutamin, 3,5 g D-Glukose/l, 50 U/50 µg/ml Pen/Strep und 10 % FKS, eingesetzt unter 5 % CO2, 95 % Luftfeuchtigkeit, 37°C. Die subkonfluenten Zellen werden mit dem Zellschaber abgekratzt, in Medium aufgenommen, die Zellzahl bestimmt (Zählung in Trypanblaulösung 0,2 %) und in 24-Napfplatten (1 x 10^6 Zellen/ml, 1 ml/Napf) ausgesät.
Ca. 18 Stunden nach Aussaat werden die gut adherierten Mausmakrophagen mit LPS (Lipopolysaccharid von E. coli Serotyp 0111:B4, Fa. Sigma Nr. L 2630) und γ-Interferon (γIFN, Maus rekombinant, Firma Boehringer Mannheim Nr. 1276905) stimuliert. Dazu wird das Kulturmedium von den Zellen abgesaugt und 1 ml/Napf (24-Napfplatte) Inkubationsmedium (MEM ohne Phenolrot (Biochrom F0385)), konditioniert mit 4mM Glutamin, 3,5 g Glukose/l, 3,7 g NaHCO3/l, 110 mg Natriumpyruvat/l, 50 U/50 µg/ml Pen/Strep und 5 % FKS, aufgegeben. Pro ml Inkubationsmedium werden 1 µl LPS und 1 µl γIFN pipettiert.
Daraus ergeben sich folgende Konzentrationen der Stimulatoren: 140 ng LPS/ml + 5 U γIFN/ml [formula] […]

IC50: 1300 nM
Compound: NC1=NCCCCS1 [Beispiel 1, 2-Amino-4,5,6,7-tetrahydro-1,3-thiazepin-Hydrochlorid]
